US20230398123A1, “METHODS TO TREAT INFLAMMATORY BOWEL DISEASE” (SHANGHAI PHARMACEUTICALS HOLDING CO., LTD., priority 2021, published 2023)
“Also recorded” adds a separate entry of the source. Like-named read-outs stand apart in the source and are kept apart here.

Assays:
[1] = test system: DNBS-induced colitis in Wistar rats; assay: DNBS-induced colitis in Wistar rats; format: in vivo; settings: day 1-7
Bioavailability in rats = settings: rat, in vivo, oral
[2] = Bioavailability in monkeys; settings: monkey, in vivo, oral
[3] = Tekturna (aliskiren) label; cited from earlier work
[4] = test system: TNBS-induced colitis in RenTgMK mice; settings: TNBS instillation, aliskiren by intraperitoneal injection; cited from earlier work
IL-6 = IL-6 release from human ulcerative colitis colon mucosal biopsies (SEB-stimulated, multiplex ELISA); format: cell-based; settings: about 18 hours, 50 ng/mL SEB
[5] = test system: TNBS-induced colitis in C57BL/6 mice; assay: TNBS-induced colitis in C57BL/6 mice, macroscopic and microscopic colon observations; format: in vivo; settings: for histology of colon sections (H&E): day 3 after TNBS instillation (FIG. 5B)
Source text: Colitis was induced in C57BL/6 mice by instillation of trinitrobenzene sulfonic acid (TNBS) in the colons according to conventional methods. See Antoniou, et al., Ann. Medicine and Surgery, vol. 11, 9-15 (2016).
FIGS. 5A-B show histological observations of colon sections from C57BL/6 mice. All animals were sacrificed on day 3 after the TNBS instillation to induce colitis as described above, and tissues are visualized by H&E (hematoxylin and eosin) staining.
The second panel in FIG. 5B is tissue from a colon instilled with TNBS and treated with 10 mg/kg SPH-X twice daily, administered intraperitoneally.

TNF-α [6] = assay: Western blot of TNF-α protein in mucosal lysates, TNBS colitis mice; format: in vivo; settings: 10 mg/kg twice daily for three days, listed as SPH-X
Procedure: To assess the effect of SPH-X in this model at the molecular level, colitis was again induced in mice by TNBS instillation (three per treatment group), using ethanol as a control. Test animals were treated with either vehicle (PBS) or SPH-X (10 mg/kg i.p., twice daily) for three days following the TNBS injury and were then sacrificed. Colonic mucosa were isolated from each test animal and used to prepare mRNA. The mRNA was reverse transcribed to provide cDNAs.
Finally, mucosal lysates from test animals treated as described for the cytokine analysis were prepared and analyzed by Western blot to see how SPH-X affects TNF-α protein levels in the colitis model.

IL-17A = IL-17A release from human ulcerative colitis colon mucosal biopsies (multiplex ELISA); format: cell-based; settings: some UC patients; 10-300 nM
TNF-α [7] = assay: TNF-α release from human ulcerative colitis colon mucosal biopsies (multiplex ELISA); format: cell-based; settings: some UC patients; 10-300 nM
[8] = UC Donor C, Formula (I) malate salt 10-300 nM, Birb 796 1 μM

For `C[C@@H]1CCN(C(=O)CC#N)C[C@@H]1N(C)c1ncnc2[nH]ccc12` [Tofacitinib], the “CW/BW ratio improved by” value ([1]; 30 mg/kg BID p.o.) was 9%, the “CW/CL ratio improved by” value ([1]; 30 mg/kg BID p.o.) was 37% and the “CW/CL/BW ratio improved by” value ([1]; 30 mg/kg BID p.o.) was 14%.

Molecule `COC(=O)NCCCn1nc([C@@H](C)N(C(=O)C2CNCCO2)C2CC2)c2ccc(C)nc21` (stereo partly drawn) [Formula (I)] has a bioavailability (Bioavailability in rats) of 11.5 to 24.5% and a bioavailability [2] of 3.3 to 11.3%.

For `COCCCOc1cc(C[C@@H](C[C@H](N)[C@@H](O)C[C@H](C(=O)NCC(C)(C)C(N)=O)C(C)C)C(C)C)ccc1OC` [aliskiren], the bioavailability [3] is listed as 2.5% and the “effect on induced colitis” value [4] is listed as “ameliorated this induced colitis”.

For `Cc1ccc(-n2nc(C(C)(C)C)cc2NC(=O)Nc2ccc(OCCN3CCOCC3)c3ccccc23)cc1` [Birb 796, reference compound], the IL-6 production (IL-6; [8]) was “reduction of IL-6”.

With `COC(=O)NCCCn1nc([C@@H](C)N(C(=O)C2CNCCO2)C2CC2)c2ccc(C)nc21.O=C(O)C[C@H](O)C(=O)O` (stereo partly drawn) [Formula I malate salt] the colon length ([1]; 30 mg/kg q.d. p.o.) was “significantly increased colon length”, the “histology of colon sections (H&E)” value ([5]; 5 mg/kg BID, listed as SPH-X) was “substantially prevents or treats any injury caused by TNBS instillation; also recorded: treats or prevents such damage” and the “interior of colons dissected longitudinally (bleeding at the distal ends)” value ([5]; 10 mg/kg intraperitoneally after TNBS instillation (FIG. 4B)) was “do not show such damage”. For the same molecule, the “histology of colon sections (H&E)” value ([5]; 10 mg/kg twice daily intraperitoneally, listed as SPH-X) was “substantially protects the colon from injury caused by TNBS; also recorded: treats or prevents such damage”, the “gross morphology of colons” value ([5]; 20 mg/kg BID intraperitoneal, 7 days after TNBS instillation (FIG. 4A), listed as SPH-X) was “appear more normal; also recorded: substantially reverses damage caused by TNBS” and the “TNF-α protein level (Western blot)” value (TNF-α [6]) was “no TNF-α protein was seen; also recorded: reduces or stops formation of TNF-α”. For the same molecule, the IL-6 production (IL-6; [8]) was “does not show reduction in IL-6”, the IL-6 production (IL-6; UC Donors A and B, 10-300 nM) was “significant dose-related decreases” and the “release of IL-17A” value (IL-17A) was “dose-related reductions”. For the same molecule, the “release of tumor necrosis factor alpha (TNF-α)” value (TNF-α [7]) was “dose-related reductions”.
